Assay results published in paper PMC11045757, “Group 3 medulloblastoma transcriptional networks collapse under domain specific EP300/CBP inhibition” (Nature Communications, 2024).
“And” between values parts separate entries of the source, which are not always exact repeats. Equal values may be shown once. Read-outs that look alike come from different tables or passages of the source.

Legend:
[1] = tested on: HDMB03 (HDMBO3) group 3 medulloblastoma cells; assay: CellTiter-Glo dose-response growth assay; format: cell-based
How it was run: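 HDMB03 group 3 medulloblastoma cells were plated in growth media at 500 cells/well in a 384-well plate, treated with compound, and incubated for the noted timepoint. Viability was then measured by CellTiter-Glo following the manufacturer's instructions, with plates read on an Envision 2104 microplate reader to generate dose-response growth curves.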

[2] = tested on: MB002 group 3 medulloblastoma cells; assay: CellTiter-Glo dose-response growth assay; format: cell-based; conditions: day 3; read-out: d3 IC50 MB002
How it was run: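 MB002 group 3 medulloblastoma cells were seeded in growth media at 500 cells/well in a 384-well plate, exposed to a range of compound concentrations, and incubated for the indicated time. Viability was then measured by CellTiter-Glo following the manufacturer's instructions, with plates read on an Envision 2104 microplate reader to produce dose-response growth curves.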

HDMB03 (HDMBO3) cells = assay: ERCC spike-in RNAseq gene expression after 6 h treatment; format: cell-based; conditions: HDMBO3, replicate values, Supplementary Fig 6c
Protocol: (§1) First, we examined global changes in gene expression induced by drug treatment.
(§2) External RNA consortium control RNAs (ERCC, Ambion) were added directly to Trizol, based on cell number prior to RNA extraction. RNA samples were treated with DNAse I (Invitrogen) prior to recovery. Samples were obtained in biological triplicate. Total RNA was subjected to ribosomal RNA depletion prior to library preparation using the Truseq Stranded Total Library Prep Kit (Illumina) and sequencing on a Nextseq-500 (paired end, 100 bp reads).
(§3) Sequences were aligned using HISAT2 (version 2.1.0)[77] in paired-end mode with default parameters to build version hg19 of the human genome to which the sequences of the ERCC synthetic spike-in RNAs (http://tools.invitrogen.com/downloads/ERCC92.fa) had been added. Per-gene expression was quantified using htseq-count[78] with parameters “-i gene_id --stranded=reverse -f bam -m,” and version 87 of the canonical GRCh37 gene list from RefSeq to which ERCC coordinates were added. TPM-normalized (Transcripts Per Million) expression was then computed for each gene and synthetic ERCC spike-in RNA. Per-gene exon length was calculated across all exons of all isoforms of each gene. The standard TPM-normalization strategy is: normterm = sum of (read count * read length/exon length) across all genes. TPM = read count * read length/exon length * 1e6/normterm. We used a loess regression to normalize the TPM values across all samples of the batch, using only the spike-in values to fit the loess by the “affy” R package[79] with function loess.normalize. This function allowed us to perform loess regression on a matrix of TPM values and used the ERCC subset of data for fitting the loess. The output from this was a matrix of normalized TPM values controlled by ERCC spike-ins.
(§4) We used the elbow method[81] to determine the k value in k-means cluster analysis.
(§5) Dependency analysis was performed using the 22Q4 release of the DepMap dataset, comprising seven medulloblastoma cell lines: UW228, DAOY, ONS76, D458, D425, D283MED, D341MED. Dependency was defined as a Chronos gene effect score of <−0.5, and gene lists were filtered for dependency in >2/7 medulloblastoma cell lines. […] PANTHER was used to define gene annotations, with unknown annotations assigned using individual assessment using the Genecards.org resource.

MB002 cells = assay: as above; format: cell-based; conditions: MB002, replicate values, Supplementary Fig 6c
Protocol: as §1, §2, §3, §4, §5

BRD4-BD1 (BRD4-1) [3] = biological target: T1, BRD4-BD1 (BRD4-1) (Homo sapiens, UniProt O60885); assay: Differential scanning fluorimetry (DSF) thermal shift; format: binding; conditions: DSF; for ∆Tm (°C) BRD4-1: 5 μM protein, 100 μM compound, three independent experiments, average ± SD; for ΔTm (°C) BRD4-BD1: Figure 3A
T1 construct: BRD4-BD1 (residues 44-168); 6xHis (cleaved yes); host or cells: E. coli BL21 (DE3) RIL
How it was run: (§6)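 Thermal shift of 5 μM E. coli-expressed bromodomain with 100 μM compound in 50 mM HEPES pH 7.5, 150 mM NaCl, 2 mM DTT, 2% DMSO, 5X SYPRO Orange, quadruplicate. Heated 25→95 °C at 1 °C/min, fluorescence at 610 nm; ΔTm relative to DMSO reference wells.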

EP300 bromodomain = biological target: T2, EP300 bromodomain (Homo sapiens, UniProt Q09472); assay: as above; format: binding; conditions: DSF; for ∆Tm (°C) EP300: 5 μM protein, 100 μM compound, three independent experiments, average ± SD; for ΔTm (°C) EP300: Figure 3B
T2 construct: 6xHis (cleaved yes); host or cells: E. coli BL21 (DE3) RIL
T2 sequence (Q09472 1048-1161): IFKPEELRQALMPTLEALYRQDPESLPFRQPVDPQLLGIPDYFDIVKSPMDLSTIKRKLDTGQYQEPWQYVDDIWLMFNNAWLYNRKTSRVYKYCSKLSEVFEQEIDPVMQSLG
How it was run: as §6

CBP bromodomain [4] = biological target: T3, CBP bromodomain (Homo sapiens, UniProt Q92793); assay: as above; format: binding; conditions: for ∆Tm (°C) CBP / ΔTm (°C) CBP: DSF; for ∆Tm (°C) CBP: 5 μM protein, 100 μM compound, three independent experiments, average ± SD; for DSF ΔTm (°C): Figure 3C, DSF (values equal CBP column)
T3 construct: CBP (residues 1081-1197); 6xHis (cleaved yes); host or cells: E. coli BL21 (DE3) RIL

CBP bromodomain [5] = assay: as above; format: binding; conditions: ΔTm (CBP)/ΔTm(BRD4)
BRD4-BD1 (BRD4-1) [6] = biological target: T1, BRD4-BD1 (BRD4-1); assay: Isothermal titration calorimetry (ITC); format: binding; conditions: relative to CCS1477
Protocol: At OD600 of 0.6, the culture was cooled down to 18 °C and induced with 0.1 mM IPTG. After 18 h growth, the culture was harvested by centrifugation at 6000 × g for 25 min and stored at -80 °C. Harvested cell pellets were re-suspended in 50 mM Na/K phosphate buffer (pH 7.4) containing 100 mM NaCl, 40 mM imidazole, 0.01% w/v lysozyme and 0.01% v/v Triton X-100 at 4 °C for 1 h, subjected to sonication and the lysate was clarified by centrifugation (30,000 × g for 45 min at 4 °C). Proteins were purified by FPLC at 4 °C using columns and chromatography materials from GE Healthcare. […] Proteins were purified to homogeneity by size exclusion chromatography using Superdex 75 equilibrated with elution buffer (50 mM HEPES pH 7.5, 100 mM NaCl, 2 mM DTT). All BRDs eluted as monomeric protein and were of crystallization grade quality (>95% purity as judged by SDS-PAGE). Pool fractions were combined, concentrated to 10–12 mg/ml, and aliquots were flash-frozen in liquid N2 and stored at −80 °C.
All experiments were conducted using an PEAQ-ITC calorimeter (Malvern Scientific). BRDs were buffer exchanged using PD10 columns (GE life sciences) into 50 mM HEPES pH7.5 and 100 mM NaCl (ITC buffer) before the experiment and concentrated to ∼10 mg/mL. Experiments were carried out in ITC buffer while stirring at 750 rpm through reverse titration. The microsyringe (40 μL load volume) was loaded with the protein sample (250–600 μM protein in ITC buffer) and inserted into the calorimetric cell (0.2 mL cell volume) consisting of compound (20–60 μM in ITC buffer). All titrations were conducted using an initial control injection of 0.2 μL followed by 13 identical injections (~3 μL per injection) with a duration of 2 s (per injection) and a spacing of 150 s between injections. The ratio of protein/compound was optimized to ensure complete saturation of the titrant before the final injection to ensure proper baseline determination. Data were corrected for dilution and analyzed using the MicroCal Origin software to determine the enthalpies of binding (ΔH) and binding constants as described. Thermodynamic parameters were calculated using the basic equation of thermodynamics (ΔG = ΔH − TΔS = −RTlnKB) where ΔG, ΔH and ΔS are the changes in free energy, enthalpy and entropy of binding, respectively. A single binding site model was used for all ligand-protein interactions.

[7] = biological target: GFP-tagged CBP bromodomain (Homo sapiens, UniProt Q92793); assay: Microscale thermophoresis (MST); format: binding; conditions: for Response (Dose Response Curve): MST raw response
Protocol: MST experiments were performed in a Monolith NT.115 Pico instrument (NanoTemper Technologies) following published procedures. […] MST traces were recorded using standard parameters: 5 s MST power off, 30 s MST power on and 5 s MST power off. Measurements were taken at -1-0 s (cold region) and 10 s (hot region) and data were analyzed using the NTAnalysis software.

[8] = three independent MST experiments, average ± SD, read-out: Kd (nM) CBP

Sequence of GFP-tagged CBP bromodomain (Q92793 1085-1192 limits assumed): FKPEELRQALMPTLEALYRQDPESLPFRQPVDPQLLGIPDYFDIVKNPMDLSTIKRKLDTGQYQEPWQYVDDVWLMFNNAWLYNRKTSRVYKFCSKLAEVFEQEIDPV
T3 sequence (Q92793 1081-1197): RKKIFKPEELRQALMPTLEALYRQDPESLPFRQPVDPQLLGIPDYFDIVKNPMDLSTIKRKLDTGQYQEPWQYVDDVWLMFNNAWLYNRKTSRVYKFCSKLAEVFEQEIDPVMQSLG

Cc1sc2c(c1C)C(c1ccc(Cl)cc1)=N[C@@H](CC(=O)OC(C)(C)C)c1nnc(C)n1-2 [JQ1]
IC50 ([1]; day 3, read-out: d3 IC50 HDMBO3): 100 nM
IC50 [2]: 107 nM
Normalized MYC expression (HDMB03 (HDMBO3) cells): 0.9657 and 0.7621 and 0.679
Normalized MYC expression (MB002 cells): 0.8713 and 1.005 and 0.8421

COC1CCC(n2c(C3CCCC(=O)N3)nc3cc(-c4c(C)noc4C)ccc32)CC1 (centres unmarked) [Compound 2]
IC50 ([1]; HDMBO3 G3MB cell growth, read-out: IC50 (nM) HDMBO3): > 100000 nM
∆Tm (°C) BRD4-1 (BRD4-BD1 (BRD4-1) [3]): 2.9 ± 0.11 °C
∆Tm (°C) BRD4-1 (BRD4-BD1 (BRD4-1) [3]; listed as CCS1447int2): 2.9 °C
ΔTm (°C) BRD4-BD1 (BRD4-BD1 (BRD4-1) [3]): 2.9 °C
∆Tm (°C) EP300 (EP300 bromodomain): 5.6 ± 0.12 °C
ΔTm (°C) EP300 (EP300 bromodomain): 5.6 °C
∆Tm (°C) CBP (CBP bromodomain [4]): 5.6 ± 0.05 °C
∆Tm (°C) CBP (CBP bromodomain [4]; listed as CCS1447int2): 5.6 °C
ΔTm (°C) CBP (CBP bromodomain [4]; Figure 3A, CBP bromodomain): 5.6 °C
ΔTm (°C) CBP (CBP bromodomain [4]; Figure 3B, CBP): 5.6 °C
DSF ΔTm (°C) (CBP bromodomain [4]): 5.6 °C
Ratio CBP/BRD4 of ∆Tm (CBP bromodomain [5]): 1.9
reduction of activity against BRD4 (BRD4-BD1 (BRD4-1) [6]): ~ 10 fold
Kd ([7]; MO.Affinity Analysis export, single runs, target clGFP-CBPBRD 5e-8, unit inferred, listed as CCS1477int2, read-out: Kd (fit result of individual MST run)): 1770 nM and 1540 nM and 2010 nM
Kd [7, 8]: 1770 ± 234 nM

COC1CCC(n2c(C3CCCC(=O)N3c3ccccc3)nc3cc(-c4c(C)noc4C)ccc32)CC1 (centres unmarked) [Compound 5]
IC50 ([1]; Homo sapiens, HD-MB03, HDMBO3 G3MB cell growth, read-out: IC50 (nM) HDMBO3): 108 ± 25 nM
∆Tm (°C) BRD4-1 (BRD4-BD1 (BRD4-1) [3]): 5.5 ± 0.17 °C
ΔTm (°C) BRD4-BD1 (BRD4-BD1 (BRD4-1) [3]): 5.5 °C
∆Tm (°C) EP300 (EP300 bromodomain): 14.8 ± 0.45 °C
ΔTm (°C) EP300 (EP300 bromodomain): 14.8 °C
∆Tm (°C) CBP (CBP bromodomain [4]): 14.6 ± 0.16 °C
ΔTm (°C) CBP (CBP bromodomain [4]; Figure 3A, CBP bromodomain): 14.6 °C
ΔTm (°C) CBP (CBP bromodomain [4]; Figure 3B, CBP): 14.6 °C
DSF ΔTm (°C) (CBP bromodomain [4]): 14.6 °C
Ratio CBP/BRD4 of ∆Tm (CBP bromodomain [5]): 2.7
Response (Dose Response Curve) ([7]; Dose 1.52588e-10, single replicate run, listed as iCBP-5): 914.717 and 915.838
Response (Dose Response Curve) ([7]; Dose 3.05176e-10, single replicate run, listed as iCBP-5): 915.243 and 914.96
Response (Dose Response Curve) ([7]; Dose 6.10352e-10, single replicate run, listed as iCBP-5): 914.396 and 915.476
Response (Dose Response Curve) ([7]; Dose 1.2207e-9, single replicate run, listed as iCBP-5): 915.983 and 915.524
Response (Dose Response Curve) ([7]; Dose 2.44141e-9, single replicate run, listed as iCBP-5): 915.86 and 916.029
Response (Dose Response Curve) ([7]; Dose 4.88281e-9, single replicate run, listed as iCBP-5): 914.611 and 915.107
Response (Dose Response Curve) ([7]; Dose 9.76563e-9, single replicate run, listed as iCBP-5): 914.911 and 914.67
Response (Dose Response Curve) ([7]; Dose 1.95313e-8, single replicate run, listed as iCBP-5): 915.602 and 914.588
Response (Dose Response Curve) ([7]; Dose 3.90625e-8, single replicate run, listed as iCBP-5): 913.799 and 914.854
Response (Dose Response Curve) ([7]; Dose 7.8125e-8, single replicate run, listed as iCBP-5): 913.08 and 913.563
Response (Dose Response Curve) ([7]; Dose 1.5625e-7, single replicate run, listed as iCBP-5): 911.965 and 911.667
Response (Dose Response Curve) ([7]; Dose 3.125e-7, single replicate run, listed as iCBP-5): 909.591 and 910.599
Response (Dose Response Curve) ([7]; Dose 6.25e-7, single replicate run, listed as iCBP-5): 911.215 and 910.906
Response (Dose Response Curve) ([7]; Dose 1.25e-6, single replicate run, listed as iCBP-5): 911.169 and 911.287
Response (Dose Response Curve) ([7]; Dose 2.5e-6, single replicate run, listed as iCBP-5): 914.21 and 911.877
Response (Dose Response Curve) ([7]; Dose 5e-6, single replicate run, listed as iCBP-5): 912.484 and 912.12
Kd ([7]; MST, single replicate run, target clGFP-CBPBRD, TargetConcentration 5e-8, MST-Power Medium, unit inferred, read-out: Kd (Fit Results, Fit Model: Kd)): 16.1 nM and 33.7 nM
Bound (Fit Results) ([7]; fitted MST response of bound state, single replicate run, target clGFP-CBPBRD 5e-8, listed as iCBP-5): 911.766 and 911.236
Unbound (Fit Results) ([7]; fitted MST response of unbound state, single replicate run, target clGFP-CBPBRD 5e-8, listed as iCBP-5): 915.376 and 915.584
loss of binding affinity (CBP) ([7]; relative to CCS1477): ~ 10 fold
Kd [7, 8]: 31.4 ± 14.2 nM
